Several values for one entry are separate records, joined by “and”; a condition that tells them apart may be missing. Equal values may be shown once. Read-outs that look alike come from different tables or passages of the source.
Legend:
SAOS2/B10 cells = experiment: Cellular proliferation, EdU incorporation (Click-it EdU); type: cell-based
Excerpt: 3. […]
Ethynyl-2′-deoxyuridine; ThermoFisher Scientific) assay. […]

ApoE KO mice [1] = experiment: Body weight in ApoE KO mice, 8 weeks s.c. pump; type: in vivo, mouse; details: Fig. 6e; one value per animal
Procedure: (§1) Fig. 6 Beneficial IRPA effects beyond glycemic control. Glucose, body weight and hepatic triglyceride (TG) lowering by IRPA alone or in combination with a GLP-1 analog in mouse studies (a–d). Glucose lowering acutely (a) or during chronic QD dosing (b; 2-h post dose on day 11) in diabetic mice. Body weight (c) and liver triglyceride (d) changes at the end of 14-day QD dosing. […] Data is presented as mean ± SD. N = 8. p value is calculated using one-way ANOVA with Tukey’s multiple comparisons test: b1 < 0.001 vs. vehicle, b2 < 0.001 and b3 = 0.002 for indicated comparisons; c1 = 0.008 and c2 = 0.0001 vs. vehicle, c3 < 0.0001 for indicated comparisons; d1 < 0.001 vs. vehicle. IRPA reduces aortic plaque in ApoE KO mice (e–h). There was no significant body weight or cholesterol change from baseline by RHI or IRPA-3 (e, g). […] Data is presented as mean ± SD. p value is calculated using one-way ANOVA with Tukey’s multiple comparisons test: f1 = 0.0034 and f2 = 0.035 vs. vehicle; h1 = 0.046 vs. vehicle. […] Source data are provided as a Source Data file. […]

[2] = tested on: differentiated mouse 3T3 L1 adipocytes; experiment: [14C]-2-deoxyglucose uptake in differentiated mouse 3T3 L1 adipocytes; type: cell-based; details: four-parameter fit; read-out: 2DG uptake in 3T3 L1 adipocytes EC50
Procedure: and phosphatase inhibitors for 30 minutes. The lysates were applied to the modified MSD Elisa assays to measure phosphorylation of different tyrosine residues on insulin receptor. Briefly, lysates were added to custom MSD IR plates (MSD cat# N45CA-1). Phosphorylation of tyrosine on IR were measured using antibody against pY960 (rabbit mAb, Cell Applications #CB4378) or pY1345 (rabbit mAb 14A4, Cell Signaling #3026), respectively in combination with SULFO-tag anti rabbit antibody (MSD cat# R32AB). For pY1150, cell lysate was added to MSD high binding plate […]
Signaling #3024). The bound insulin receptor was detected using combination of rabbit anti-insulin receptor b (C-19, Santa Cruz sc-711) and SULFO-tag anti rabbit antibody.
3. IGF-1R binding, cellular proliferation in SaoS2 cells and 2-deoxyglucose (2DG) update in mouse
IGF-1R affinity of IRPAs was assessed in a whole cell binding assay using a cell line stably expressing […]
activities of IRPAs as measured by EdU incorporation to SAOS2/B10 cells using the Click-it EdU (5-Ethynyl-2′-deoxyuridine; ThermoFisher Scientific) assay. To assess IRPA function downstream of the signaling cascade, [14C]-2-deoxyglucose cellular uptake in the differentiated mouse 3T3 L1 adipocytes was measured using standard protocol (3). […]
measured (S4a). Mouse white adipose tissue pAkt levels (S4b) were quantified in the same manner as other tissues […]

AAV-LIRKO and WT mice = experiment: Glucose lowering in AAV-LIRKO versus WT mice; type: in vivo, mouse; details: glucose lowering efficacy; RHI 30, Levemir 24, IRPA-5 120, IRPA-6 60 nmol/kg
Procedure: Male C57BL/6 mice and Sprague-Dawley rats were obtained from Taconic Farms (Germantown, NY, USA). AAV-LIRKO mice were developed by AAV-Cre injection into conditional IR KO mice (B6.129S4(FVB)-Insr^tm1Khn/J from Jackson Laboratory; Fig. S3). To generate streptozotocin (STZ)-induced diabetic mouse, male C57BL/6 mice were treated with a single intraperitoneal (i.p.; 100 mg/kg) injection of STZ (Sigma Chemical, St. Louis, MO, USA).
6. Mouse models and related studies
LIRKO mouse model generation
Jackson Laboratory, #6955). Male mice at 8 weeks of age maintained on chow diet (Teklad 7002) were administered AAV-cre via tail vein injection as doses indicated on Fig. S4. Mice were studied 4 weeks following AAV injection for ITT or put on HFD (Research Diets, D12492) for 4 weeks before glucose lowering studies were executed.
IRPA studies in HFD-STZ mice
HFD-STZ mice were developed as previously described 40 and were groups based on their glucose ranges. Acute glucose lowering efficacy of IRPAs in healthy and HFD -STZ mice were evaluated upon administration of escalating doses of test molecules, which was expressed as area over the curve (AOC) relative to vehicle.
Intact, male Beagle dogs (2-8 years old) were either purchased from Marshall Bioresources or acquired from other in-house programs. […]

ApoE KO mice [3] = experiment: Aortic plaque in ApoE KO mice (Sudan IV staining, en face aorta); type: in vivo, mouse; details: Fig. 6h; one value per animal
Procedure: as §1

## RHI: recombinant human insulin, purchased from commercial sources
SAOS2/B10 cells; geometric mean of all independent titrations, EdU incorporation, four-parameter fit, read-out: Cell Proliferation Assay Total Ave EC50
  EC50: 6.53 nM
SAOS2/B10 cells; titration 1, read-out: Cell Proliferation Assay EC50-1
  EC50: 12.9 nM
SAOS2/B10 cells; titration 2, read-out: Cell Proliferation Assay EC50-2
  EC50: 3.1 nM
SAOS2/B10 cells; titration 3, read-out: Cell Proliferation Assay EC50-3
  EC50: 9.5 nM
SAOS2/B10 cells; titration 4, read-out: Cell Proliferation Assay EC50-4
  EC50: 9.5 nM
SAOS2/B10 cells; titration 5, read-out: Cell Proliferation Assay EC50-5
  EC50: 3.3 nM
ApoE KO mice [1]
  Body ewight change (%) from pretreatment: 13.2% and 5.48% and 7.48% and 4.52% and 8.31% and 18.95% and 5.38% and -7.57% and 17.6% and 5.39% and 19.87% and 3% and 15.56%
[2]
  EC50: 6.6 nM
AAV-LIRKO and WT mice
  AUC reduction in AAV-LIRKO mice compared to WT mice: 30%
ApoE KO mice [3]
  Aortic plaque area (% to total surface): 33.7% and 21.2% and 20.3% and 22.7% and 23.8% and 26.1% and 21.1% and 26.6% and 22.5% and 26.7% and 29.0% and 23.3%

From paper PMC8854621, “Functionally selective signaling and broad metabolic benefits by novel insulin receptor partial agonists” (Nature Communications, 2022)
